Laboratory results reported in patent US12528826B2, “[1,4]oxazepino[2,3-c]quinolinone derivatives as BCL6 inhibitors” (Cancer Research Technology Limited, priority 2019, dated 2026).

target: T1, Trx-6×His-BCL6 (human BCL6 BTB domain covering amino-acid sequence 5-129) (Homo sapiens, UniProt P41182); assay: HTRF assay (BCL6 / BCOR peptide); type: binding; conditions: 1 nM Trx-6×His-BCL6, 300 nM BCOR-AF633 peptide, 2 hours incubation at room temperature; read-out: HTRF avg pIC50 (converted)
T1 construct: made in house
Experimental: After 2 hours incubation at room temperature the plate was read on a Pherastar FSX (BMG Labtech) plate reader equipped with 337 nm laser excitation filter, a first emission filter at 620 nm and a second emission filter at 665 nm. The % inhibition at each concentration was calculated by normalising FRET ratio to the appropriate high (DMSO with all reagents) and low (DMSO without BCL6) controls.

IC50 [nM]	Compound
2.14	Cn1c(=O)c2c(c3cc(Nc4nc(N5CC[C@H]5CO)ncc4Cl)ccc31)N[C@@H](C1CC1)C(F)(F)CO2 [Example 12x33a, (S)-10-((5-chloro-2-((S)-2-(hydroxymethyl)azetidin-1-yl)pyrimidin-4-yl)amino)-2-cyclopropyl-3,3-difluoro-7-methyl-1,2,3,4-tetrahydro-[1,4]oxazepino[2,3-c]quinolin-6(7H)-one]
7.76	Cn1c(=O)c2c(c3cc(Nc4nc(N5CC[C@@H]5CO)ncc4Cl)ccc31)N[C@@H](C1CC1)C(F)(F)CO2 [Example 12x33b, (S)-10-((5-chloro-2-((R)-2-(hydroxymethyl)azetidin-1-yl)pyrimidin-4-yl)amino)-2-cyclopropyl-3,3-difluoro-7-methyl-1,2,3,4-tetrahydro-[1,4]oxazepino[2,3-c]quinolin-6(7H)-one]
2.51	CN(C)C(=O)C1CC(F)CN(c2ncc(Cl)c(Nc3ccc4c(c3)c3c(c(=O)n4C)OCC(F)(F)[C@H](C4CC4)N3)n2)C1 (stereo partly drawn) [Example 12x39, 1-(5-chloro-4-(((S)-2-cyclopropyl-3,3-difluoro-7-methyl-6-oxo-1,2,3,4,6,7-hexahydro-[1,4]oxazepino[2,3-c]quinolin-10-yl)amino)pyrimidin-2-yl)-5-fluoro-N,N-dimethylpiperidine-3-carboxamide]
10.7	Cn1c(=O)c2c(c3cc(Nc4nc(N5CCCC(F)C5)ncc4Cl)ccc31)N[C@@H](C1CC1)C(F)(F)CO2 (stereo partly drawn) [Example 12x40, (2S)-10-((5-chloro-2-(3-fluoropiperidin-1-yl)pyrimidin-4-yl)amino)-2-cyclopropyl-3,3-difluoro-7-methyl-1,2,3,4-tetrahydro-[1,4]oxazepino[2,3-c]quinolin-6(7H)-one]
5.01	Cn1c(=O)c2c(c3cc(Nc4nc(N5CCC[C@H]5CO)ncc4Cl)ccc31)N[C@@H](C1CC1)C(F)(F)CO2 [Example 12x44, (S)-10-((5-chloro-2-((S)-2-(hydroxymethyl)pyrrolidin-1-yl)pyrimidin-4-yl)amino)-2-cyclopropyl-3,3-difluoro-7-methyl-1,2,3,4-tetrahydro-[1,4]oxazepino[2,3-c]quinolin-6(7H)-one]
4.79	COC[C@H]1CCCN1c1ncc(Cl)c(Nc2ccc3c(c2)c2c(c(=O)n3C)OCC(F)(F)[C@H](C3CC3)N2)n1 [Example 12x45b, (S)-10-((5-chloro-2-((R)-2-(methoxymethyl)pyrrolidin-1-yl)pyrimidin-4-yl)amino)-2-cyclopropyl-3,3-difluoro-7-methyl-1,2,3,4-tetrahydro-[1,4]oxazepino[2,3-c]quinolin-6(7H)-one]
8.32	Cn1c(=O)c2c(c3cc(Nc4nc(N5CC(F)(F)C[C@H]5CO)ncc4Cl)ccc31)N[C@@H](C1CC1)C(F)(F)CO2 [Example 12x47, (S)-10-((5-chloro-2-((S)-4,4-difluoro-2-(hydroxymethyl)pyrrolidin-1-yl)pyrimidin-4-yl)amino)-2-cyclopropyl-3,3-difluoro-7-methyl-1,2,3,4-tetrahydro-[1,4]oxazepino[2,3-c]quinolin-6(7H)-one]
4.27	Cn1c(=O)c2c(c3cc(Nc4nc(N5C[C@@H](F)C[C@H]5CO)ncc4Cl)ccc31)N[C@@H](C1CC1)C(F)(F)CO2 [Example 12x48a, (S)-10-((5-chloro-2-((2S,4S)-4-fluoro-2-(hydroxymethyl)pyrrolidin-1-yl)pyrimidin-4-yl)amino)-2-cyclopropyl-3,3-difluoro-7-methyl-1,2,3,4-tetrahydro-[1,4]oxazepino[2,3-c]quinolin-6(7H)-one]
18.6	Cn1c(=O)c2c(c3cc(Nc4nc(N5C[C@H](F)C[C@H]5CO)ncc4Cl)ccc31)N[C@@H](C1CC1)C(F)(F)CO2 [Example 12x48b, (S)-10-((5-chloro-2-((2S,4R)-4-fluoro-2-(hydroxymethyl)pyrrolidin-1-yl)pyrimidin-4-yl)amino)-2-cyclopropyl-3,3-difluoro-7-methyl-1,2,3,4-tetrahydro-[1,4]oxazepino[2,3-c]quinolin-6(7H)-one]
6.76	C[C@H]1C[C@@H](O)CN(c2cc(Nc3ccc4c(c3)c3c(c(=O)n4C)OCC(F)(F)[C@H](C4CC4)N3)c(Cl)cn2)C1 [Example 13a, (S)-10-((5-chloro-2-((3R,5S)-3-hydroxy-5-methylpiperidin-1-yl)pyridin-4-yl)amino)-2-cyclopropyl-3,3-difluoro-7-methyl-1,2,3,4-tetrahydro-[1,4]oxazepino[2,3-c]quinolin-6(7H)-one]
19.5	CN(C)c1cc(Nc2ccc3c(c2)c2c(c(=O)n3C)OCC(F)(F)[C@H](C3CC3)N2)c(Cl)cn1 [Example 13c12, (S)-2-cyclopropyl-10-((2-(dimethylamino)-5-chloropyridin-4-yl)amino)-3,3-difluoro-7-methyl-1,2,3,4-tetrahydro-[1,4]oxazepino[2,3-c]quinolin-6(7H)-one]
58.9	Cn1c(=O)c2c(c3cc(Nc4cc(N5CCC(F)(F)CC5)ncc4F)ccc31)N[C@@H](C1CC1)C(F)(F)CO2 [Example 13f04, (S)-2-cyclopropyl-10-((2-(4,4-difluoropiperidin-1-yl)-5-fluoropyridin-4-yl)amino)-3,3-difluoro-7-methyl-1,2,3,4-tetrahydro-[1,4]oxazepino[2,3-c]quinolin-6(7H)-one]
85.1	CC1CN(c2ncc(F)c(Nc3ccc4c(c3)c3c(c(=O)n4C)OCC(F)(F)[C@H](C4CC4)N3)n2)CC(C)C1(F)F (stereo partly drawn) [Example 13p01, (2S)-2-cyclopropyl-10-((2-(4,4-difluoro-3,5-dimethylpiperidin-1-yl)-5-fluoropyrimidin-4-yl)amino)-3,3-difluoro-7-methyl-1,2,3,4-tetrahydro-[1,4]oxazepino[2,3-c]quinolin-6(7H)-one]

More lines, now with the values behind:

Compound	IC50 [nM]
CC1CC(C(=O)N2CC(F)(F)C2)CN(c2ncc(Cl)c(Nc3ccc4c(c3)c3c(c(=O)n4C)OCC(F)(F)[C@H](C4CC4)N3)n2)C1 (stereo partly drawn) [Example 12x31, (2S)-10-((5-chloro-2-(3-(3,3-difluoroazetidine-1-carbonyl)-5-methylpiperidin-1-yl)pyrimidin-4-yl)amino)-2-cyclopropyl-3,3-difluoro-7-methyl-1,2,3,4-tetrahydro-[1,4]oxazepino[2,3-c]quinolin-6(7H)-one]	3.8
Cn1c(=O)c2c(c3cc(Nc4nc(N5CC(CO)C5)ncc4Cl)ccc31)N[C@@H](C1CC1)C(F)(F)CO2 [Example 12x32, (S)-10-((5-chloro-2-(3-(hydroxymethyl)azetidin-1-yl)pyrimidin-4-yl)amino)-2-cyclopropyl-3,3-difluoro-7-methyl-1,2,3,4-tetrahydro-[1,4]oxazepino[2,3-c]quinolin-6(7H)-one]	3.72
Cn1c(=O)c2c(c3cc(Nc4nc(N5CC(CF)C5)ncc4Cl)ccc31)N[C@@H](C1CC1)C(F)(F)CO2 [Example 12x35, (S)-10-((5-chloro-2-(3-(fluoromethyl)azetidin-1-yl)pyrimidin-4-yl)amino)-2-cyclopropyl-3,3-difluoro-7-methyl-1,2,3,4-tetrahydro-[1,4]oxazepino[2,3-c]quinolin-6(7H)-one]	5.37
Cn1c(=O)c2c(c3cc(Nc4nc(N5CCC(C#N)CC5)ncc4Cl)ccc31)N[C@@H](C1CC1)C(F)(F)CO2 [Example 12x38, (S)-1-(5-chloro-4-((2-cyclopropyl-3,3-difluoro-7-methyl-6-oxo-1,2,3,4,6,7-hexahydro-[1,4]oxazepino[2,3-c]quinolin-10-yl)amino)pyrimidin-2-yl)piperidine-4-carbonitrile]	3.72
Cn1c(=O)c2c(c3cc(Nc4nc(N5CCC(F)CC5)ncc4Cl)ccc31)N[C@@H](C1CC1)C(F)(F)CO2 [Example 12x42, (S)-10-((5-chloro-2-(4-fluoropiperidin-1-yl)pyrimidin-4-yl)amino)-2-cyclopropyl-3,3-difluoro-7-methyl-1,2,3,4-tetrahydro-[1,4]oxazepino[2,3-c]quinolin-6(7H)-one]	6.17
COC[C@@H]1CCCN1c1ncc(Cl)c(Nc2ccc3c(c2)c2c(c(=O)n3C)OCC(F)(F)[C@H](C3CC3)N2)n1 [Example 12x45a, (S)-10-((5-chloro-2-((S)-2-(methoxymethyl)pyrrolidin-1-yl)pyrimidin-4-yl)amino)-2-cyclopropyl-3,3-difluoro-7-methyl-1,2,3,4-tetrahydro-[1,4]oxazepino[2,3-c]quinolin-6(7H)-one]	11.2
CC1CCN(c2ncc(Cl)c(Nc3ccc4c(c3)c3c(c(=O)n4C)OCC(F)(F)[C@H](C4CC4)N3)n2)C1CO (stereo partly drawn) [Example 12x49, (2S)-10-((5-chloro-2-(2-(hydroxymethyl)-3-methylpyrrolidin-1-yl)pyrimidin-4-yl)amino)-2-cyclopropyl-3,3-difluoro-7-methyl-1,2,3,4-tetrahydro-[1,4]oxazepino[2,3-c]quinolin-6(7H)-one]	6.31
Cn1c(=O)c2c(c3cc(Nc4cc(N5CCC(F)(F)CC5)ncc4Cl)ccc31)N[C@@H](C1CC1)C(F)(F)CO2 [Example 13b]	30.9
C[C@H]1C[C@@H](O)CN(c2cc(Nc3ccc4c(c3)c3c(c(=O)n4C)OCC(F)(F)[C@H](C4CC4)N3)c(F)cn2)C1 [Example 13f05, (S)-2-cyclopropyl-3,3-difluoro-10-((5-fluoro-2-((3R,5S)-3-hydroxy-5-methylpiperidin-1-yl)pyridin-4-yl)amino)-7-methyl-1,2,3,4-tetrahydro-[1,4]oxazepino[2,3-c]quinolin-6(7H)-one]	6.61
Cn1c(=O)c2c(c3cc(Nc4nc(N5CCOCC5)ncc4F)ccc31)N[C@@H](C1CC1)C(F)(F)CO2 [Example 13p06, (S)-2-cyclopropyl-3,3-difluoro-10-((5-fluoro-2-morpholinopyrimidin-4-yl)amino)-7-methyl-1,2,3,4-tetrahydro-[1,4]oxazepino[2,3-c]quinolin-6(7H)-one]	11.7
